Reference: patent US12590106B2, “Spiromacrocyclic orexin 2 receptor agonists” (H. Lundbeck A/S, priority 2023, dated 2026)

Target: T1, human Ox2R (Homo sapiens, UniProt O43614)
T1 construct: The gene encoding hOx2R was subcloned into the expression plasmid pcDNA5/FRT/TO; expressed in transfected cells; host or cells: CHO Flp-In cells (pcDNA5/FRT/TO with pOG44 Flp recombinase vector, hygromycin B selection)
T1 sequence (O43614 1-444): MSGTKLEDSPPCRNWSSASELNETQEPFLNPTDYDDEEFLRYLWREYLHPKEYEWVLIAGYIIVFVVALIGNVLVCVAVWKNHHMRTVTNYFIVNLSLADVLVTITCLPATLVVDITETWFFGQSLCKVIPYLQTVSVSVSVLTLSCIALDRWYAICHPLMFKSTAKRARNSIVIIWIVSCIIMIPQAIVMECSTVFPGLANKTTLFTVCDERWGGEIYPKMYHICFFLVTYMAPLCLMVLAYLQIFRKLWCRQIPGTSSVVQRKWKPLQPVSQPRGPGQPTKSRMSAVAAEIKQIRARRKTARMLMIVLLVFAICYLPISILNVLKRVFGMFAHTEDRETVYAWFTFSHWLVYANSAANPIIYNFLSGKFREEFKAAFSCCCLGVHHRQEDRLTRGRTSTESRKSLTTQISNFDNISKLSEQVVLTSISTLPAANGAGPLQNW
Test: Measurement of OX2R agonist activity (cell-based calcium release assay)
Settings: hOx2R-CHO Flp-In cells, n≥2 tests; for EC50: intracellular calcium, read-out: EC50; for Emax: normalized to assay buffer (0%) and 10 μM Danavorexton (100%), read-out: Emax (%)
Outline: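 CHO Flp-In cells stably expressing human Ox2R, dye-loaded 1 h at 37 °C in HBSS/20 mM HEPES pH 7.4 with 2.5 mM probenecid and 10 mM CaCl2, then stimulated with compound.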

Compound	EC50 [nM]	Emax [%]
C[C@H]1Oc2c(F)cccc2-c2cc(ccc2F)C[C@@]2(CC[C@H](NS(C)(=O)=O)C2)c2nc1co2 [Example 85, N-[(1′S,9R,14R)-6,19-difluoro-9-methyl-spiro[8,12-dioxa-21-azatetracyclo[14.3.1.110,13.02,7]henicosa-1(19),2(7),3,5,10,13(21),16(20),17-octaene-14,3′-cyclopentane]-1′-yl]methanesulfonamide]	2.3	100
CS(=O)(=O)N[C@H]1CC[C@@]2(Cc3cccc(c3)-c3cccc(c3)OCc3ccnc2n3)C1 [Example 86, N-[(1′S,14R)-spiro[7-oxa-12,21-diazatetracyclo[14.3.1.12,6.19,13]docosa-1(20),2,4,6(22),9,11,13(21),16,18-nonaene-14,3′-cyclopentane]-1′-yl]methanesulfonamide]	90	100
CS(=O)(=O)N[C@H]1CC[C@@]2(Cc3ccc(F)c(c3)-c3ccc(F)c(F)c3OCc3ccnc2n3)C1 [Example 87, N-[(1′S,15R)-5,6,20-trifluorospiro[8-oxa-13,22-diazatetracyclo[15.3.1.110,14.02,7]docosa-1(21),2,4,6,10,12,14(22),17,19-nonaene-15,3′-cyclopentane]-1′-yl]methanesulfonamide]	2	100
CS(=O)(=O)N[C@H]1CC[C@@]2(Cc3ccc(F)c(c3)-c3ccccc3OCc3ccnc2n3)C1 [Example 90, N-[(1′S,15R)-20-fluorospiro[8-oxa-13,22-diazatetracyclo[15.3.1.110,14.02,7]docosa-1(20),2,4,6,10,12,14(22),17(21),18-nonaene-15,3′-cyclopentane]-1′-yl]methanesulfonamide]	1.1	110
CS(=O)(=O)N[C@H]1CC[C@@]2(Cc3ccc(F)c(c3)-c3cc(F)cc(F)c3OCc3ccnc2n3)C1 [Example 91, N-[(1′S,15R)-4,6,20-trifluorospiro[8-oxa-13,22-diazatetracyclo[15.3.1.110,14.02,7]docosa-1(20),2,4,6,10,12,14(22),17(21),18-nonaene-15,3′-cyclopentane]-1′-yl]methanesulfonamide]	0.32	100
CS(=O)(=O)N[C@H]1CC[C@@]2(Cc3ccc(F)c(c3)-c3ccc(F)cc3OCc3ccnc2n3)C1 [Example 92, N-[(1′S,15R)-5,20-difluorospiro[8-oxa-13,22-diazatetracyclo[15.3.1.110,14.02,7]docosa-1(20),2,4,6,10,12,14(22),17(21),18-nonaene-15,3′-cyclopentane]-1′-yl]methanesulfonamide]	16	110
CS(=O)(=O)N[C@H]1CC[C@@]2(Cc3ccc(F)c(c3)-c3cccc(F)c3OCc3nccc2n3)C1 [Example 95, N-[(1′S,15R)-6,20-difluorospiro[8-oxa-11,22-diazatetracyclo[15.3.1.110,14.02,7]docosa-1(20),2,4,6,10,12,14(22),17(21),18-nonaene-15,3′-cyclopentane]-1′-yl]methanesulfonamide]	8	100
CS(=O)(=O)N[C@H]1CC[C@]2(CC1)Cc1cc(c(F)cc1F)-c1cccc(F)c1OCc1coc2n1 [Example 96, trans-N-(6,17,19-trifluorospiro[8,12-dioxa-21-azatetracyclo[14.3.1.110,13.02,7]henicosa-1(19),2,4,6,10,13(21),16(20),17-octaene-14,4′-cyclohexane]-1′-yl)methanesulfonamide]	0.23	98
CS(=O)(=O)N[C@H]1CC[C@]2(CC1)Cc1ccc(F)c(c1)-c1cccc(F)c1OCc1coc2n1 [Example 97, trans-N-(6,19-difluorospiro[8,12-dioxa-21-azatetracyclo[14.3.1.110,13.02,7]henicosa-1(19),2,4,6,10,13(21),16(20),17-octaene-14,4′-cyclohexane]-1′-yl)methanesulfonamide]	0.39	96
CS(=O)(=O)N[C@H]1C[C@@]2(Cc3ccc(F)c(c3)-c3cccc(F)c3OCc3coc2n3)C1 [Example 98, trans-N-(6,19-difluorospiro[8,12-dioxa-21-azatetracyclo[14.3.1.110,13.02,7]henicosa-1(20),2,4,6,10,13(21),16,18-octaene-14,3′-cyclobutane]-1′-yl)methanesulfonamide]	0.87	99
CS(=O)(=O)N[C@@H]1CC[C@]2(Cc3ccc(F)c(c3)-c3cccc(F)c3OCc3coc2n3)C1 [Example 99, N-[(1′R,14S)-6,19-difluorospiro[8,12-dioxa-21-azatetracyclo[14.3.1.110,13.02,7]henicosa-1(19),2,4,6,10,13(21),16(20),17-octaene-14,3′-cyclopentane]-1′-yl]methanesulfonamide]	3.3	96
CS(=O)(=O)N[C@H]1CC[C@@]2(Cc3cc(c(F)cc3F)-c3cccc(F)c3OCc3cc(=O)[nH]c2n3)C1 [Example 101, N-[(1′S,15R)-6,18,20-trifluoro-12-oxo-spiro[8-oxa-13,22-diazatetracyclo[15.3.1.110,14.02,7]docosa-1(20),2(7),3,5,10,14(22),17(21),18-octaene-15,3′-cyclopentane]-1′-yl]methanesulfonamide]	0.67	96
Cc1nc2c(s1)-c1cc(ccc1F)C[C@@]1(CC[C@H](NS(C)(=O)=O)C1)c1nc(co1)CO2 [Example 102, N-[(1′S,13R)-18-fluoro-4-methyl-spiro[7,11-dioxa-3-thia-5,20-diazatetracyclo[13.3.1.19,12.02,6]icosa-1(18),2(6),4,9,12(20),15(19),16-heptaene-13,3′-cyclopentane]-1′-yl]methanesulfonamide]	2.1	110
CS(=O)(=O)N[C@H]1CC[C@@]2(Cc3ccc(C(F)F)c(c3)-c3cccc(F)c3OCc3coc2n3)C1 [Example 103, N-[(1′S,14R)-19-(difluoromethyl)-6-fluoro-spiro[8,12-dioxa-21-azatetracyclo[14.3.1.110,13.02,7]henicosa-1(19),2,4,6,10,13(21),16(20),17-octaene-14,3′-cyclopentane]-1′-yl]methanesulfonamide]	3.3	99
CS(=O)(=O)N[C@H]1CC[C@@]2(Cc3cc(ncc3F)-c3cccc(F)c3OCc3coc2n3)C1 [Example 105, N-[(1′S,14R)-6,17-difluorospiro[8,12-dioxa-19,21-diazatetracyclo[14.3.1.110,13.02,7]henicosa-1(20),2,4,6,10,13(21),16,18-octaene-14,3′-cyclopentane]-1′-yl]methanesulfonamide]	6.1	97
CS(=O)(=O)N[C@H]1CC[C@@]2(Cc3cc(c(F)cn3)-c3cccc(F)c3OCc3coc2n3)C1 [Example 106, N-[(1′S,14S)-6,19-difluorospiro[8,12-dioxa-17,21-diazatetracyclo[14.3.1.110,13.02,7]henicosa-1(20),2,4,6,10,13(21),16,18-octaene-14,3′-cyclopentane]-1′-yl]methanesulfonamide]	26	98
CS(=O)(=O)N[C@@H]1CC[C@]2(Cc3cc(c(F)cc3F)-c3cccc(F)c3OCc3coc2n3)C1 [Example 107, N-[(1′R,14S)-6,17,19-trifluorospiro[8,12-dioxa-21-azatetracyclo[14.3.1.110,13.02,7]henicosa-1(19),2,4,6,10,13(21),16(20),17-octaene-14,3′-cyclopentane]-1′-yl]methanesulfonamide]	2.6	100
